Measured values from US8354402B2, “Polyarylcarboxamides useful as lipid lowering agents” (Janssen Pharmaceutica N.V., priority 2000, dated 2013).

test system: ApoB secretion, HepG2 cells; assay: Quantification of the secretion of ApoB (HepG2 cells, immunoprecipitation, scintillation counting); format: cell-based; conditions: 24 hours of incubation, listed as 203
How it was run: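 HepG2 cells in MEM Rega 3 with 10% FCS were treated at 70% confluency with compound (DMSO 0.4% final) for 24 h. Medium ApoB was immunoprecipitated with sheep anti-apoB then rabbit anti-sheep antibody (24 h each, 8° C), and pellet radioactivity was counted by liquid scintillation to give IC50.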

Row | SMILES | pIC50
1 | COC(=O)C(c1ccccc1)C1CCN(c2ccc(NC(=O)c3ccccc3-c3ccc(C(C)(C)C)cc3)cc2)CC1 (stereo not shown) [Co. No. 203] | 8.333

same assay, conditions: 24 hours of incubation, listed as 240

Row | SMILES | pIC50
2 | COC(=O)C(c1ccccc1)N1CCN(c2ccc(NC(=O)c3ccccc3-c3ccc(C(F)(F)F)cc3)cc2)CC1 (stereo not shown) [Co. No. 240] | 7.982

same assay, conditions: Homo sapiens, 24 hours of incubation

Row | SMILES | IC50 [nM]
3 | CCNC(=O)N(c1ccccc1)C1CCN(c2ccc(NC(=O)c3ccccc3-c3ccc(C(F)(F)F)cc3)cc2)CC1 [Co. No. 252] | 12.2

same assay, conditions: Homo sapiens, HepG2, 24 h, 24 hours of incubation

Row | SMILES | IC50 [nM]
4 | CC(C)CNC(=O)C(c1ccccc1)N1CCN(c2ccc(NC(=O)c3ccccc3-c3ccc(C(F)(F)F)cc3)cc2)CC1 (stereo not shown) [Co. No. 58] | ≤ 30
5 | O=C(Nc1ccc(N2CCC(C(C(=O)NCc3ccccc3)c3ccccc3)CC2)cc1)c1ccccc1-c1ccccc1 (stereo not shown) [Co. No. 3] | 25.6
6 | CCCNC(=O)C(c1ccccc1)C1CCN(c2ccc(NC(=O)c3ccccc3CSc3ccccc3)cc2)CC1 (stereo not shown) [Co. No. 16] | 83.8
7 | O=C(Nc1ccc(N2CCN(C(C(=O)NCc3ccccn3)c3ccccc3)CC2)cc1)c1ccccc1-c1ccc(C(F)(F)F)cc1 (stereo not shown) [Co. No. 60] | ≤ 30
8 | CCCNC(=O)C(c1ccccc1)N1CCN(c2ccc(NC(=O)c3ccccc3-c3ccc(C(F)(F)F)cc3)cc2)CC1 (stereo not shown) [Co. No. 55] | ≤ 30
9 | O=C(Nc1ccc(C2CCN(C(C(=O)NCc3ccccc3)c3ccccc3)CC2)cc1)c1ccccc1-c1ccccc1 (stereo not shown) [Co. No. 161] | 68.9
10 | CCCNC(=O)C(c1ccccc1)C1CCN(c2ccc(NC(=O)c3ccccc3-c3ccc(C(C)(C)C)cc3)cc2)CC1 (stereo not shown) [Co. No. 132] | 50.2
11 | COC(=O)C(c1ccccc1)N1CCN(c2ccc(NC(=O)c3cc(Cl)ccc3-c3ccc(C(F)(F)F)cc3)cc2)CC1 (stereo not shown) [Co. No. 191] | 7.19
12 | CCCNC(=O)C(c1ccccc1)C1CCN(c2ccc(NC(=O)c3ccccc3-c3ccc(Cl)cc3)cc2)CC1 (stereo not shown) [Co. No. 68] | ≤ 30
13 | Cc1ccccc1-c1ccccc1C(=O)Nc1ccc(N2CCC(C(C(=O)NCc3ccccc3)c3ccccc3)CC2)cc1 (stereo not shown) [Co. No. 51] | 68.7
14 | CC(C)NC(=O)C(c1ccccc1)C1CCN(c2ccc(NC(=O)c3ccccc3-c3ccccc3)cc2)CC1 (stereo not shown) [Co. No. 22] | 104
15 | COC(=O)C(c1ccccc1)N1CCN(c2ccc(NC(=O)c3cc(OC)c(OC)cc3-c3ccc(C(F)(F)F)cc3)cc2)CC1 (stereo not shown) [Co. No. 193] | 235
16 | COC(=O)C(c1ccccc1)N1CCN(c2ccc(NC(=O)c3ccccc3-c3ccc(C(F)(F)F)cc3)c(Cl)c2)CC1 (stereo not shown) [Co. No. 207] | < 30
17 | CCCNC(=O)C(c1ccccc1)C1CCN(c2ccc(NC(=O)c3ccccc3-c3ccc4ccccc4c3)cc2)CC1 (stereo not shown) [Co. No. 47] | 199
18 | CCCNC(=O)C(c1ccccc1)C1CCN(c2ccc(NC(=O)c3cccc4c3-c3ccccc3C4)cc2)CC1 (stereo not shown) [Co. No. 12] | 231
19 | COC(=O)C(c1ccccc1)C1CCN(c2ccc(NC(=O)c3cccc(C)c3-c3ccc(C(C)(C)C)cc3)cc2)CC1 (stereo not shown) [Co. No. 237] | < 30
20 | CCNC(=O)C(c1ccccc1)C1CCN(c2ccc(NC(=O)c3ccccc3-c3cccc(Cl)c3)cc2)CC1 (stereo not shown) [Co. No. 86] | 84.1
21 | O=C(Nc1ccc(N2CCC(C(C(=O)OCc3ccccc3)c3ccccc3)CC2)cc1)c1ccccc1-c1ccc(C(F)(F)F)cc1 (stereo not shown) [Co. No. 174] | 92.3
22 | O=C(Nc1ccc(N2CCC(C(C(=O)Nc3ccccc3)c3ccccc3)CC2)cc1)c1ccccc1-c1cccc(C(F)(F)F)c1 (stereo not shown) [Co. No. 118] | 127
23 | CCNC(=O)C(c1ccccc1)N1CCN(c2ccc(NC(=O)c3ccccc3-c3ccc(C(F)(F)F)cc3)cc2C(F)(F)F)CC1 (stereo not shown) [Co. No. 217] | 2690
24 | CCNC(=O)C(c1ccccc1)N1CCN(c2ccc(NC(=O)c3ccccc3-c3ccc(Cl)cc3)cc2)CC1 (stereo not shown) [Co. No. 160] | 32.4
25 | COC(=O)C(c1ccc(Cl)cc1)N1CCN(c2ccc(NC(=O)c3ccccc3-c3ccc(C(F)(F)F)cc3)cc2)CC1 (stereo not shown) [Co. No. 263] | 279

Row | SMILES | IC50 [nM]
26 | CCNC(=O)C(c1ccccc1)N1CCC(c2ccc(NC(=O)c3ccccc3-c3ccccc3)cc2)CC1 (stereo not shown) [Co. No. 149] | 41.7
27 | COC(=O)C(c1ccccc1)N1CCN(c2ccc(NC(=O)c3c(C)cccc3-c3ccc(C(F)(F)F)cc3)cc2)CC1 (stereo not shown) [Co. No. 188] | 10
28 | CCc1ccc(-c2ccccc2C(=O)Nc2ccc(N3CCC(C(C(=O)OC)c4ccccc4)CC3)cc2)cc1 (stereo not shown) [Co. No. 231] | < 30
29 | O=C(Nc1ccc(N2CCC(C(C(=O)NCc3ccccc3)c3ccccc3)CC2)cc1)c1ccccc1-c1cccc2ccccc12 (stereo not shown) [Co. No. 136] | 148
30 | CC(C)CCOC(=O)C(c1ccccc1)C1CCN(c2ccc(NC(=O)c3ccccc3-c3ccc(C(F)(F)F)cc3)cc2)CC1 (stereo not shown) [Co. No. 249] | > 3000
31 | CC(C)NC(=O)C(c1ccccc1)C1CCN(c2ccc(NC(=O)c3ccccc3OCc3ccccc3)cc2)CC1 (stereo not shown) [Co. No. 26] | 275
32 | CCNC(=O)C(c1ccccc1)C1CCN(c2ccc(NC(=O)c3ccccc3-c3ccc4ccccc4c3)cc2)CC1 (stereo not shown) [Co. No. 95] | ≤ 30
33 | CCCNC(=O)C(CN1CCN(c2ccc(NC(=O)c3ccccc3-c3ccc(C(F)(F)F)cc3)cc2)CC1)c1ccccc1 (stereo not shown) [Co. No. 63, N-[4-[4-[3-oxo-2-phenyl-3-(propylamino)propyl]-1-piperazinyl]phenyl]-4′-(trifluoromethyl)-[1,1′-biphenyl]-2-carboxamide] | 122
34 | CCNC(=O)C(c1ccccc1)C1CCN(c2ccc(NC(=O)c3ccccc3-c3ccccc3OC)cc2)CC1 (stereo not shown) [Co. No. 135] | 149
35 | O=C(Nc1ccc(N2CCC(C(C(=O)Nc3ccccc3)c3ccccc3)CC2)cc1)c1ccccc1-c1cccc(Cl)c1 (stereo not shown) [Co. No. 108] | 188
36 | CCCNC(=O)C(c1ccccc1)C1CCN(c2ccc(NC(=O)c3ccccc3-c3ccccc3C)cc2)CC1 (stereo not shown) [Co. No. 131] | 417
37 | O=C(Nc1ccc(N2CCC(C(C(=O)Nc3ccccc3)c3ccccc3)CC2)cc1)c1ccccc1CSc1ccccc1 (stereo not shown) [Co. No. 31] | 1280
38 | CC(C)NC(=O)C(c1ccccc1)C1CCN(c2ccc(NC(=O)c3cccc4c3Cc3ccccc3-4)cc2)CC1 (stereo not shown) [Co. No. 23] | ≥ 3000
39 | O=C(Nc1ccc(C2CCN(C(C(=O)NCc3cccnc3)c3ccccc3)CC2)cc1)c1ccccc1-c1ccc(C(F)(F)F)cc1 (stereo not shown) [Co. No. 76] | 51.8
40 | COC(=O)C(c1ccccc1)N1CCN(c2ccc(NC(=O)c3cc(OC)ccc3-c3ccc(C(F)(F)F)cc3)cc2)CC1 (stereo not shown) [Co. No. 186] | 200
41 | CC(C)NC(=O)C(c1ccccc1)C1CCN(c2ccc(NC(=O)c3ccccc3Cc3ccccc3)cc2)CC1 (stereo not shown) [Co. No. 28] | 767
42 | CCNC(=O)C(c1ccccc1)N1CCN(c2ccc(N(C)C(=O)c3ccccc3-c3ccc(C(F)(F)F)cc3)cc2)CC1 (stereo not shown) [Co. No. 182] | 7.62
43 | CCNC(=O)C(c1ccccc1)C1CCN(c2ccc(NC(=O)c3ccccc3-c3ccc(C(F)(F)F)cc3)cc2)CC1 (stereo not shown) [Co. No. 181] | 3.31
44 | O=C(Nc1ccc(C2=CCN(C(C(=O)OCc3ccccc3)c3ccccc3)CC2)cc1)c1ccccc1-c1ccc(C(F)(F)F)cc1 (stereo not shown) [Co. No. 168] | 132
45 | CCCNC(=O)C(c1ccccc1)C1CCN(c2ccc(NC(=O)c3ccccc3-c3cccc(Cl)c3)cc2)CC1 (stereo not shown) [Co. No. 82] | 97.5
46 | CCCNC(=O)C(c1ccccc1)C1CCN(c2ccc(NC(=O)c3ccccc3-c3cccc4ccccc34)cc2)CC1 (stereo not shown) [Co. No. 42] | ≥ 3000

molecular target: MTP (Homo sapiens, UniProt P55157); assay: MTP assay (triglyceride transfer from donor to acceptor vesicles); format: biochemical; conditions: MTP activity, 37° C.
Protocol: MTP activity was measured using an assay similar to one described by J. R. Wetterau and D. B. Zilversmit in Chemistry and Physics of Lipids (1985) 38, 205-222. In order to prepare the donor and acceptor vesicles, the appropriate lipids in chloroform were put into a glass test tube and dried under a stream of nitrogen. A buffer containing 15 mM Tris-HCl (pH 7.5), 1 mM ethylenediamine tetra-acetic acid, 40 mM NaCl, 0.02% NaN3 (assay buffer) was added to the dried lipid. The mixture was vortexed briefly and the lipids were then allowed to hydrate for 20 minutes on ice. Vesicles were then prepared by bath sonication (using a Branson 2200 device) at room temperature for at most 15 minutes. Butylated hydroxytoluene was included in all vesicle preparations at a concentration of 0.1%. The lipid transfer assay mixture contained donor vesicles (40 nmole phosphatidylcholine, 7.5 mole % cardiolipin and 0.25 mole % glycerol tri[1-^14C]-oleate), acceptor vesicles (240 nmol phosphatidylcholine) and 5 mg bovine serum albumin in a total volume of 675 μl in a 1.5 ml microcentrifuge tube. Test compounds were added dissolved in dimethylsulfoxide (0.13% final concentration). After 5 minutes of pre-incubation at 37° C., the reaction was started by the addition of MTP in 100 μl of a dialysis buffer. The reaction was stopped by the addition of 400 μl […] (DEAE)-52 cellulose (Sephadex) pre-equilibrated in 15 mM Tris-HCl (pH 7.5), 1 mM ethylenediamine tetra-acetic acid and 0.02% NaN3 (1:1 volume/volume). The mixture was agitated for 4 minutes and centrifuged for 2 minutes at maximum speed in an Eppendorf centrifuge (4° C.) to pellet the DEAE-52-bound donor vesicles. An aliquot of the supernatant containing the acceptor liposomes was counted and the [^14C]-counts were used to calculate the percent triglyceride transfer from donor to acceptor vesicles.
Resulting IC50 values are enumerated in Table C.2 for some of the above-referred compounds.

Chain of MTP (P55157 19-894, species assumed): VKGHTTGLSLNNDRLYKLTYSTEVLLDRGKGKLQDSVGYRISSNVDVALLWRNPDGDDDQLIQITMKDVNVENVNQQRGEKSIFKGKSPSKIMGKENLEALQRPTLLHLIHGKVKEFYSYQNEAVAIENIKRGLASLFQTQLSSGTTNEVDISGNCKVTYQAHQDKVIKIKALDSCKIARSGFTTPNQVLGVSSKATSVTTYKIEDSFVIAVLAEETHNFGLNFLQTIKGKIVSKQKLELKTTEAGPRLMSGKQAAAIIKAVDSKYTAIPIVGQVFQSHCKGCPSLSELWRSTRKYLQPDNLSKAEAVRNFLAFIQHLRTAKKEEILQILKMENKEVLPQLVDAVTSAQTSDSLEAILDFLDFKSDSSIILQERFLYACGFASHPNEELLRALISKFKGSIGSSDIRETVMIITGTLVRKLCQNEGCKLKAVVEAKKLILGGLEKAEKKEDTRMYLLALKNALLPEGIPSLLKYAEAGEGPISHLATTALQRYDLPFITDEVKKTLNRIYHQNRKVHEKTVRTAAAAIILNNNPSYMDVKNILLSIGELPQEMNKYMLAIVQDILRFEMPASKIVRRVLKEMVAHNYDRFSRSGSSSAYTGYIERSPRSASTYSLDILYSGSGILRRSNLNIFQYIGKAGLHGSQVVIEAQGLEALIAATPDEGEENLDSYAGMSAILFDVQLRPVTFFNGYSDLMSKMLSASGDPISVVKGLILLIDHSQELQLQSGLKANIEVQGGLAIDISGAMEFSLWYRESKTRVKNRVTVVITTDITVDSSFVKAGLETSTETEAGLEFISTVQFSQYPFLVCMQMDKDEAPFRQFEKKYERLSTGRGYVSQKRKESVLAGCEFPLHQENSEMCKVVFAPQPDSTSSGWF
Chain of MTP (P07237 18-508 partner, species assumed): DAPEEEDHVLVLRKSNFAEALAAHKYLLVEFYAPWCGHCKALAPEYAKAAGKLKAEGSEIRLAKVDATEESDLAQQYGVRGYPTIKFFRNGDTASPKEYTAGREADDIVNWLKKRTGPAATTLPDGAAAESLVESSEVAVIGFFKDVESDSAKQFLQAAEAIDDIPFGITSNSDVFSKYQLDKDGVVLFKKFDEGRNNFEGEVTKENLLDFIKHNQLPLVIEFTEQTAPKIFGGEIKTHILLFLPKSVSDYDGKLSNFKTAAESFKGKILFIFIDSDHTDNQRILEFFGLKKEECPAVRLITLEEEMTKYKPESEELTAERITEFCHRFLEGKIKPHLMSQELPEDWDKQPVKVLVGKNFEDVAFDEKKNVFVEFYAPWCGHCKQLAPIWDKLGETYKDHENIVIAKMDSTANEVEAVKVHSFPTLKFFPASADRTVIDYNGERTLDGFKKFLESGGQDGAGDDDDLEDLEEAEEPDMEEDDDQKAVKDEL

Row | SMILES | IC50 [nM]
47 | CC(C)CNC(=O)C(c1ccccc1)N1CCN(c2ccc(NC(=O)c3ccccc3-c3ccc(C(F)(F)F)cc3)cc2)CC1 (stereo not shown) [Co. No. 58] | 15.9
48 | COC(=O)C(c1ccccc1)C1CCN(c2ccc(NC(=O)c3ccccc3-c3ccc(C(C)(C)C)cc3)cc2)CC1 (stereo not shown) [Co. No. 203] | 2.08
49 | O=C(Nc1ccc(N2CCC(C(C(=O)NCc3ccccc3)c3ccccc3)CC2)cc1)c1ccccc1-c1ccccc1 (stereo not shown) [Co. No. 3] | 18.4
50 | CCCNC(=O)C(c1ccccc1)C1CCN(c2ccc(NC(=O)c3ccccc3CSc3ccccc3)cc2)CC1 (stereo not shown) [Co. No. 16] | 208
51 | CCOC(=O)C(c1ccccc1)N1CCC(c2ccc(NC(=O)c3ccccc3-c3ccc(C(F)(F)F)cc3)cc2)CC1 (single isomer, unassigned) [Co. No. 265] | 5.62
52 | O=C(Nc1ccc(N2CCN(C(C(=O)NCc3ccccn3)c3ccccc3)CC2)cc1)c1ccccc1-c1ccc(C(F)(F)F)cc1 (stereo not shown) [Co. No. 60] | 8.28
53 | CCCNC(=O)C(c1ccccc1)N1CCN(c2ccc(NC(=O)c3ccccc3-c3ccc(C(F)(F)F)cc3)cc2)CC1 (stereo not shown) [Co. No. 55] | 4.27
54 | CCOC(=O)C(c1ccccc1)N1CCC(c2ccc(NC(=O)c3ccccc3-c3ccc(C(F)(F)F)cc3)cc2)CC1 (single isomer, unassigned) [Co. No. 264] | 31.8
55 | CCNC(=O)C(c1ccccc1)N1CCN(c2ccc(NC(=O)c3cccc(C)c3-c3ccc(C(F)(F)F)cc3)cc2)CC1 (stereo not shown) [Co. No. 199] | 4.63
